Source: patent publication US20230355549A1, “METHOD OF PREVENTING KIDNEY INJURY DISRUPTION OF INTESTINAL LYMPHATICS” (Vanderbilt University, priority 2020, published 2023)
Where a name gives a salt, the structure may show the parent alone. Blank lines part the entries; values can stand above or below the molecule they belong to.

Key:
Sprague Dawley rats = details: rat, in vivo, ip, 125 mg/kg
Description: Adult male Sprague Dawley rats (200-225 g, Charles River) were housed under a 12-h light/dark cycle with free access to normal rat chow and water. Kidney injury was induced by a single injection of puromycin […] (PAN) (125 mg/kg body weight, i.p.) while saline-injected rats served as controls (Cont). Eight days after injection, rats were sacrificed and blood, urine, and tissues were harvested. We also studied adult male (12 weeks old) Nphs1-hCD25 transgenic (NEP25, C57 bl/6 background) mice expressing human CD25 on podocytes can be selectively injured by injection of recombinant immunotoxin, anti-Tac (Fv)-PE38 (LMB2, 1 ng/g BW, i.v. generously provided by Dr. Ira Pastan) that results in proteinuria. These and wild type control mice were housed under normal conditions with free access to regular rodent chow and water. Two weeks after LMB2, mice were sacrificed and blood, urine and tissues harvested. All animal procedures were approved by the Institutional Animal Care and Use Committee at Vanderbilt University.
Mesenteric lymph was collected in a subset of conscious rats following cannulation of the mesenteric lymph duct. The rats were placed in Bollman cages in a temperature- and humidity-controlled incubator and lymph collected hourly for at least 3 h.
(§1) Albumin (Exocell), apoAI (Mybiosource), sphingosine-1 phosphate (S1P) (Mybiosource) and VEGF-C levels (Mybiosource) were measured by ELISA. Albuminuria was measured as urine albumin-to-creatinine ratio (ACR) (Nephrat II, Exocell) and QuantiChrom™ Creatinine Assay Kit (Bioassay Systems), respectively. Plasma and lymph total cholesterol and triglycerides were measured enzymatically (Cliniqa). HDL and LDL fractions were isolated from plasma and lymph by density-gradient ultracentrifugation after adjustment with potassium bromide. Lipoprotein particle size was evaluated by NMR methodology (Liposcience). Colorimetric assays were used to measure protein (BCA, ThermoFisher). Lipoproteins in plasma and lymph were separated by size-exclusion chromatography (SEC) using an Akta Pure fast-protein liquid chromatography (FPLC) system (GE Healthcare). Total IsoLG-protein adduct by LC/MS was measured as IsoLG-lysine after complete proteolytic digestion of lymph samples.

ileal organoids = test: IsoLG adduct production in cultured ileal organoids (enteroids); type: cell-based; details: 1 mmol/L, 3 days, vs vehicle, FIG. 4C
Description: as §1
Intact perfused intestine was used to generate ileal organoids. Cultured ileal organoids were incubated in medium with or without indoxyl sulfate (1 mmol/L, Sigma) for 3 days. Total protein was extracted for quantitation of IsoLG.

[1] = tested on: Primary adult dermal lymphatic endothelial cells (LECs); test: Cultured lymphatic endothelial cells (LECs) exposed to IsoLG-modified apoAI; type: cell-based; details: apoAI 10 μg/ml, IsoLG 1 μM/L, 18 h, vs unmodified apoAI
Description: Primary adult dermal lymphatic endothelial cells (LECs) (HMVEC-DLyAd, Lonza) were cultured with conditioned growth medium (Lonza). Cells at passage 5-6 with ˜70% confluence were starved in serum-free medium overnight, then incubated with unmodified or IsoLG-modified apoAI (apoAI: 10 μg/ml, IsoLG: 1 μM/L) for 18 h. […] Quantification of eNOS (Nos3) and β-actin (ACTB) mRNA was performed by RT-PCR and production of superoxide was assessed by high-performance liquid chromatography.

THP-1 cells = test: VEGFC mRNA in THP-1 derived macrophages; type: cell-based; details: apoAI 10 μg/ml, IsoLG 1 μM/L, 48 h, vs unmodified apoAI, FIG. 6D
Description: THP-1 cells were plated and differentiated into macrophages by […] containing 10% FBS and 50 ng/ml phorbol 12-myristate 13-acetate for 3 days. Cells were incubated with unmodified or IsoLG-modified apoAI (apoAI: 10 μg/ml, IsoLG: 1 μM/L) for 48 h. VEGFC mRNA was assessed by RT-PCR.

[2] = tested on: isolated mesenteric lymphatic vessels; test: Lymphatic dynamics ex vivo, isolated mesenteric lymphatic vessels
Description: Mesenteric lymphatic vessels were collected and mounted in a perfusion chamber. Chambers were placed on inverted microscopes equipped with a digital image capture system (IonOptix) to record pre-valve intraluminal diameters and frequency of contractions. Vessels were warmed to 37° C., pressurized to 0.5 mmHg using a column of Krebs buffer, and allowed to equilibrate (20-60 minutes). Viable vessels were then pressurized in a stepwise manner to a constant pressure of 3.5 mmHg, then exposed to purified apoAI or modified apoAI using 1 molar equivalent synthetic IsoLG or vehicle (DMSO). Fresh Krebs buffer was circulated to facilitate wash out. Next vessels were exposed to IsoLG-modified apoAI. After each challenge, lumen diameters were allowed to plateau (40-60 minutes).

ACR (albumin/creatinine concentration ratio) (Sprague Dawley rats): 126.652 ± 13.283 mg/mg
Plasma Albumin (Sprague Dawley rats): 350.7 ± 27.3 mg/dL
Plasma Cholesterol (Sprague Dawley rats): 236.6 ± 36.8 mg/dL
Plasma Triglyceride (Sprague Dawley rats): 132.1 ± 19.2 mg/dL
Molecule: CN(C)c1ncnc2c1ncn2[C@@H]1O[C@H](CO)[C@@H](N)[C@H]1O [PAN, puromycin aminoglycoside]

Molecule: O=S(=O)(O)Oc1c[nH]c2ccccc12 [indoxyl sulfate]
IsoLG adduct production (ileal organoids): significantly increased

Molecule: IsoLG-apoAI: purified apoAI modified using 1 molar equivalent synthetic IsoLG
production of ROS ([1]; FIG. 5A): significantly greater production of ROS
eNOS (Nos3) gene expression ([1]; FIG. 5B): increased Nos3
VEGFC mRNA expression (THP-1 cells): significantly increased
end-systolic diameter (ESD) ([2]; FIG. 5D): failed to significantly alter
end-diastolic diameter (EDD) ([2]; FIG. 5E): significantly decreased
amplitude of contraction ([2]; FIG. 5F): significantly reduced
frequency of contractions ([2]; vs unmodified apoAI, FIG. 5C): increased frequency of contractions
